In paper PMC12234328, “A naphthalimide derivative exerts potent antiplatelet and antithrombotic activities without a bleeding tendency” (Frontiers in Pharmacology, 2025):

Columns and labels:
[1] = tested on: human platelet suspensions stimulated with collagen; test: Collagen-induced platelet aggregation (turbidimetric, lumi-aggregometer); assay type: cell-based
Description: (§1) This study received approval from the Taipei Medical University–Joint Institutional Review Board (TMU-JIRB-No. N202003148) and adhered to the principles of the Declaration of Helsinki. Informed consent was obtained from all volunteers before their participation. Human platelets were washed and prepared according to previously established methods ([Lu et al., 2019]). Whole blood was collected from healthy participants who had not taken any medications, including nonsteroidal anti-inflammatory drugs or aspirin, in the preceding 2 weeks. The blood was drawn into polypropylene tubes containing an acid citrate–dextrose solution (9:1, v/v). After mixing, the samples were centrifuged at 120 g for 10 min. The upper layer of platelet-rich plasma was collected and supplemented with prostaglandin E1 and heparin. Following further centrifugation at 500 g for 10 min, the platelet pellets were washed twice. The platelets were then resuspended in Tyrode’s solution containing 3.5 mg/mL bovine serum albumin (B.S.A.) to create platelet suspensions. The final Ca^2+ concentration of the platelet suspensions (3.6 × 10^8 cells/mL) was 1 mM.
Platelet aggregation was measured using a lumi-aggregometer (Payton, Scarborough, Canada) through the turbidimetric method ([Lu et al., 2019]). Human platelet suspensions (3.6 × 10^8 cells/mL) were treated with compound 6 (1–50 μM) or an isovolumetric solvent control (0.1% DMSO) for 3 min. Subsequently, various agonists were added and platelet aggregation was then recorded for an additional 6 min.
FIGURE 2 Effects of compound 6 on human platelet aggregation triggered by various agonists. (A–C) Washed platelets (3.6 × 10^8 cells/mL) were treated with compound 6 (1–50 μM) or dimethyl sulfoxide (DMSO; solvent control) before adding 1 μg/mL collagen (A), 0.02 U/mL thrombin (B), and 1 μM U46619 (C). Panels A–C present the curve of platelet aggregation, and panel D presents the statistical analysis of panels A–C. Data (D) are presented as means ± SEM (n = 4). ###p < 0.001 compared with the DMSO group.

[2] = tested on: human platelet suspensions stimulated with thrombin; test: Thrombin-induced platelet aggregation; assay type: cell-based; conditions: 5–50 μM, 0.02 U/mL thrombin
Description: as §1
Platelet aggregation was measured using a lumi-aggregometer (Payton, Scarborough, Canada) through the turbidimetric method ([Lu et al., 2019]). […] Subsequently, various agonists were added and platelet aggregation was then recorded for an additional 6 min. […]

[3] = tested on: GPVI signaling (Lyn, Fyn, PLCγ2, PKC substrate p47, Akt, MAPKs); test: Western blotting of GPVI signaling in collagen-stimulated platelets; assay type: cell-based, human; conditions: collagen 1 μg/mL
Description: Western blotting was performed as described previously ([Lien et al., 2017]). Human platelet suspensions (3.6 × 10^8 cells/mL) were pretreated with compound 6 (2.5 and 5 μM) or 0.1% DMSO for 3 min and then treated with collagen for 6 min. After centrifugation, the platelet pellets were immediately resuspended in lysis buffer (200 μL) for 1 h. The supernatants were collected after centrifugation at 5,000 g for 5 min, and the protein extracts (80 μg) were subjected to 8%–12% sodium dodecylsulfate–polyacrylamide gel electrophoresis. The separated proteins were then electrotransferred onto a polyvinylidene fluoride membrane through a semidry transfer (Thermo Fisher, Waltham, MA, United States). The membrane was blocked with TBST (10 mM Tris-base, 100 mM NaCl, and 0.01% Tween-20) containing 5% B.S.A. for 1 h. After being washed three times, the membrane was incubated with various specific primary antibodies (1:1,000). Subsequently, the membrane was incubated with HRP-conjugated antibodies (1:5,000) for 1 h. Immunoreactive bands were developed using an electrochemiluminescence kit and analyzed using Celvin S (Biostep, Burkhardtsdorf, Germany).
FIGURE 5 Effects of compound 6 on the phosphorylation of Fyn, Lyn, PLCγ2, and PKC substrates (p47) induced by collagen in human platelets. (A–D) Washed platelets (3.6 × 10^8 cells/mL) were treated with compound 6 (2.5 and 5 μM) or DMSO before adding collagen (1 μg/mL). Proteins of these samples were separated by Western blotting. These targets (Fyn, Lyn, PLCγ2, and p47) were detected using specific antibodies. Data (A–D) are presented as means ± SEM (n = 5). **p < 0.01 and ***p < 0.001 compared with the resting group. #p < 0.05, ##p < 0.01, and ###p < 0.001 compared with the DMSO (solvent control) group.
FIGURE 6 Effects of compound 6 on the phosphorylation of Akt, and MAPKs induced by collagen in human platelets. Washed platelets (3.6 × 10^8 cells/mL) were treated with compound 6 (2.5 and 5 μM) or DMSO before adding collagen (1 μg/mL). […] Akt (A), p38 MAPK (B), ERK (C), and JNK (D) were detected using specific antibodies. […]

[4] = tested on: collagen-triggered calcium mobilization in human platelets; test: Calcium mobilization in human platelet suspensions (Fura-2 AM); assay type: cell-based; conditions: 2.5 and 5 μM, collagen 1 μg/mL, n = 4
Description: Adenosine triphosphate (ATP) release and calcium mobilization were assessed as previously described ([Shih et al., 2021]). Luciferase–luciferin and Fura-2 AM were used to detect ATP release and calcium mobilization, respectively. The intensity of luminescence (indicating ATP release) and the fluorescence ratio (340 nm/380 nm) for calcium mobilization were measured using a Hitachi Spectrometer F-7000 (Tokyo, Japan) following the manufacturer’s instructions.
FIGURE 8 Effects of compound 6 on ATP release, calcium mobilization, and GPIIb–IIIa activation triggered by collagen in human platelets. Washed platelets (3.6 × 10^8 cells/mL) were treated with compound 6 (C6, 2.5 and 5 μM) or DMSO and then stimulated with collagen (1 μg/mL) to trigger ATP release (A), calcium mobilization (B), and GPIIb–IIIa activation (C) that were detected using luciferase/luciferin, Fura-2 AM, and APC–PAC1 antibodies, respectively. Data (A–C) are presented as means ± SEM (n = 4). **p < 0.01 and ***p < 0.001 compared with the resting group. #p < 0.05, ##p < 0.01, and ###p < 0.001 compared with the DMSO (solvent control) group.

CCCCN1C(=O)c2cccc3c(NCCNC(=O)C45CC6CC(CC(C6)C4)C5)ccc(c23)C1=O [compound 6]
Antiplatelet effect at the same concentration, compound 6 versus compound 5 ([1]; 5 μM, collagen 1 μg/mL, Supplementary Figure S1): better antiplatelet effects than compound 5
IC50 ([1]; Platelet, washed human platelets, 1 μg/mL collagen): ~2.5 µM
Potency in inhibiting collagen-induced platelet aggregation relative to compound 5 ([1]; comparison with ref Shih et al., 2021): twice as high
Effect on thrombin-induced platelet aggregation [2]: did not significantly affect
Collagen-induced phosphorylation of Akt and MAPKs (ERK, p38 MAPK, JNK) ([3]; 5 μM, n = 4): could be diminished
Collagen-induced Lyn and Fyn phosphorylation ([3]; 2.5 and 5 μM, n = 5): could be reversed
Collagen-induced phosphorylation of PLCγ2 and the substrate of PKC (p47 proteins) ([3]; 2.5 and 5 μM, n = 5): significantly reduced
Calcium mobilization [4]: significantly reduce
